Active and inactive are the calls of the source. The rule behind the calls is not given here.
What was measured:
LOX IMVI [1] = test: Cytotoxicity against human LOXIMVI cells assessed as cell growth at 0.01 uM after 48 hrs by sulforhodamine B assay relative to control; assay type: functional; details: read-out: Activity
CAKI-1 [2] = test: Cytotoxicity against human Caki1 cells assessed as cell growth at 10 uM after 48 hrs by sulforhodamine B assay relative to control; assay type: functional; details: CAKI-1, 48 h, read-out: Activity
CAKI-1 [3] = test: Cytotoxicity against human Caki1 cells assessed as cell growth at 1 uM after 48 hrs by sulforhodamine B assay relative to control; assay type: functional; details: CAKI-1, 48 h, read-out: Activity
SNB-75 [4] = test: Cytotoxicity against human SNB75 cells assessed as cell growth at 1 uM after 48 hrs by sulforhodamine B assay relative to control; assay type: functional; details: SNB-75, 48 h, read-out: Activity
SNB-75 [5] = test: Cytotoxicity against human SNB75 cells assessed as cell growth at 10 uM after 48 hrs by sulforhodamine B assay relative to control; assay type: functional; details: SNB-75, 48 h, read-out: Activity
LOX IMVI [6] = test: Cytotoxicity against human LOXIMVI cells assessed as cell growth at 10 uM after 48 hrs by sulforhodamine B assay relative to control; assay type: functional; details: read-out: Activity
HOP-92 [7] = test: Cytotoxicity against human HOP92 cells assessed as cell growth at 0.01 uM after 48 hrs by sulforhodamine B assay relative to control; assay type: functional; details: HOP-92, 48 h, read-out: Activity
SF-295 [8] = test: Cytotoxicity against human SF295 cells assessed as cell growth at 0.01 uM after 48 hrs by sulforhodamine B assay relative to control; assay type: functional; details: SF-295, 48 h, read-out: Activity
LOX IMVI [9] = test: Cytotoxicity against human LOXIMVI cells assessed as cell growth at 0.1 uM after 48 hrs by sulforhodamine B assay relative to control; assay type: functional; details: read-out: Activity
HOP-92 [10] = test: Cytotoxicity against human HOP92 cells assessed as cell growth at 1 uM after 48 hrs by sulforhodamine B assay relative to control; assay type: functional; details: HOP-92, 48 h, read-out: Activity
HOP-92 [11] = test: Cytotoxicity against human HOP92 cells assessed as cell growth at 0.1 uM after 48 hrs by sulforhodamine B assay relative to control; assay type: functional; details: HOP-92, 48 h, read-out: Activity
SF-295 [12] = test: Cytotoxicity against human SF295 cells assessed as cell growth at 10 uM after 48 hrs by sulforhodamine B assay relative to control; assay type: functional; details: SF-295, 48 h, read-out: Activity
HOP-92 [13] = test: Cytotoxicity against human HOP92 cells assessed as growth inhibition after 48 hrs by sulforhodamine B assay; assay type: functional; details: HOP-92, 48 h
SNB-75 [14] = test: Cytotoxicity against human SNB75 cells assessed as cell growth at 0.01 uM after 48 hrs by sulforhodamine B assay relative to control; assay type: functional; details: SNB-75, 48 h, read-out: Activity
SK-MEL-2 [15] = test: Cytotoxicity against human SK-MEL-2 cells assessed as cell growth at 10 uM after 48 hrs by sulforhodamine B assay relative to control; assay type: functional; details: SK-MEL-2, 48 h, read-out: Activity
LOX IMVI [16] = test: Cytotoxicity against human LOXIMVI cells assessed as cell growth at 1 uM after 48 hrs by sulforhodamine B assay relative to control; assay type: functional; details: read-out: Activity
SF-295 [17] = test: Cytotoxicity against human SF295 cells assessed as cell growth at 100 uM after 48 hrs by sulforhodamine B assay relative to control; assay type: functional; details: SF-295, 48 h, read-out: Activity
SK-MEL-2 [18] = test: Cytotoxicity against human SK-MEL-2 cells assessed as cell growth at 0.01 uM after 48 hrs by sulforhodamine B assay relative to control; assay type: functional; details: SK-MEL-2, 48 h, read-out: Activity
SK-MEL-2 [19] = test: Cytotoxicity against human SK-MEL-2 cells assessed as cell growth at 100 uM after 48 hrs by sulforhodamine B assay relative to control; assay type: functional; details: SK-MEL-2, 48 h, read-out: Activity
HOP-92 [20] = test: Cytotoxicity against human HOP92 cells assessed as cell growth at 100 uM after 48 hrs by sulforhodamine B assay relative to control; assay type: functional; details: HOP-92, 48 h, read-out: Activity
SNB-75 [21] = test: Cytotoxicity against human SNB75 cells assessed as cell growth at 100 uM after 48 hrs by sulforhodamine B assay relative to control; assay type: functional; details: SNB-75, 48 h, read-out: Activity
SF-295 [22] = test: Cytotoxicity against human SF295 cells assessed as cell growth at 0.1 uM after 48 hrs by sulforhodamine B assay relative to control; assay type: functional; details: SF-295, 48 h, read-out: Activity
SK-MEL-2 [23] = test: Cytotoxicity against human SK-MEL-2 cells assessed as cell growth at 0.1 uM after 48 hrs by sulforhodamine B assay relative to control; assay type: functional; details: SK-MEL-2, 48 h, read-out: Activity
HOP-92 [24] = test: Cytotoxicity against human HOP92 cells assessed as cell growth at 10 uM after 48 hrs by sulforhodamine B assay relative to control; assay type: functional; details: HOP-92, 48 h, read-out: Activity
SF-295 [25] = test: Cytotoxicity against human SF295 cells assessed as cell growth at 1 uM after 48 hrs by sulforhodamine B assay relative to control; assay type: functional; details: SF-295, 48 h, read-out: Activity
CAKI-1 [26] = test: Cytotoxicity against human Caki1 cells assessed as cell growth at 0.1 uM after 48 hrs by sulforhodamine B assay relative to control; assay type: functional; details: CAKI-1, 48 h, read-out: Activity
SNB-75 [27] = test: Cytotoxicity against human SNB75 cells assessed as cell growth at 0.1 uM after 48 hrs by sulforhodamine B assay relative to control; assay type: functional; details: SNB-75, 48 h, read-out: Activity
CAKI-1 [28] = test: Cytotoxicity against human Caki1 cells assessed as cell growth at 100 uM after 48 hrs by sulforhodamine B assay relative to control; assay type: functional; details: CAKI-1, 48 h, read-out: Activity
SF-295 [29] = test: Cytotoxicity against human SF295 cells assessed as growth inhibition after 48 hrs by sulforhodamine B assay; assay type: functional; details: SF-295, 48 h
SNB-75 [30] = test: Cytotoxicity against human SNB75 cells assessed as growth inhibition after 48 hrs by sulforhodamine B assay; assay type: functional; details: SNB-75, 48 h
LOX IMVI [31] = test: Cytotoxicity against human LOXIMVI cells assessed as cell growth at 100 uM after 48 hrs by sulforhodamine B assay relative to control; assay type: functional; details: read-out: Activity
CAKI-1 [32] = test: Cytotoxicity against human Caki1 cells assessed as cell growth at 0.01 uM after 48 hrs by sulforhodamine B assay relative to control; assay type: functional; details: CAKI-1, 48 h, read-out: Activity
CAKI-1 [33] = test: Cytotoxicity against human Caki1 cells assessed as growth inhibition after 48 hrs by sulforhodamine B assay; assay type: functional; details: CAKI-1, 48 h
SK-MEL-2 [34] = test: Cytotoxicity against human SK-MEL-2 cells assessed as cell growth at 1 uM after 48 hrs by sulforhodamine B assay relative to control; assay type: functional; details: SK-MEL-2, 48 h, read-out: Activity
MCF7 [35] = test: Downregulation of Akt1 mRNA expression in human MCF7 cells at 2 uM after 48 hrs by qRT-PCR analysis; assay type: functional, cell-based
MCF7 [36] = test: Upregulation of PTEN mRNA expression in human MCF7 cells at 2 uM after 48 hrs by qRT-PCR analysis; assay type: functional, cell-based
MCF7 [37] = test: Inhibition of PI3K in human MCF7 cells assessed as increase in GSK-3beta phosphorylation at Ser9 at 2 uM after 24 hrs by Western blot analysis; assay type: cell-based
MCF7 [38] = test: Upregulation of BAX mRNA expression in human MCF7 cells at 2 uM after 48 hrs by qRT-PCR analysis; assay type: functional, cell-based
MCF7 [39] = test: Downregulation of Akt protein expression in human MCF7 cells at 2 uM after 24 hrs by Western blot analysis; assay type: functional, cell-based
MCF7 [40] = test: Downregulation of Akt protein expression in human MCF7 cells at 2 uM after 48 hrs by Alexa/DAPI staining-based immunofluorescence analysis; assay type: functional, cell-based
MCF7 [41] = test: Downregulation of PI3K mRNA expression in human MCF7 cells at 2 uM after 48 hrs by qRT-PCR analysis; assay type: functional, cell-based
MCF7 [42] = test: Induction of intrinsic apoptosis in human MCF7 cells assessed as effect on mitochondrial membrane depolarization at 2 uM after 18 hrs by DiOC6 staining-based FACS analysis (reference value: 2%); assay type: functional

Compound | growth at 0.01 µM (LOX IMVI [1]) | growth at 10 µM (CAKI-1 [2]) | growth at 1 µM (CAKI-1 [3]) | growth at 1 µM (SNB-75 [4]) | growth at 10 µM (SNB-75 [5]) | growth at 10 µM (LOX IMVI [6]) | growth at 0.01 µM (SF-295 [8]) | growth at 0.1 µM (LOX IMVI [9]) | growth at 0.01 µM (SNB-75 [14]) | growth at 10 µM (SK-MEL-2 [15]) | growth at 1 µM (LOX IMVI [16]) | growth at 100 µM (SF-295 [17]) | growth at 0.01 µM (SK-MEL-2 [18]) | growth at 100 µM (SK-MEL-2 [19]) | growth at 100 µM (SNB-75 [21]) | growth at 0.1 µM (CAKI-1 [26]) | growth at 100 µM (CAKI-1 [28]) | growth at 0.01 µM (CAKI-1 [32]) | LC50 (CAKI-1 [33]) | TGI (CAKI-1 [33]) | other results
COc1ccc(C(=O)/C=C/c2cc(-c3ccc4c(c3)OCO4)n[nH]2)cc1OC | 100% | -51% | 89% | 76% | -10% | -62% | 95% | 99% | 78% | 39% | 97% | -93% | 98% | -68% | -100% | 100% | -65% | 93% | 9.84 µM | 4.33 µM | growth at 0.01 µM (HOP-92 [7]): 85%; growth at 1 µM (HOP-92 [10]): 79%; growth at 0.1 µM (HOP-92 [11]): 87%; growth at 10 µM (SF-295 [12]): -27%; TGI (HOP-92 [13]): 8.11 µM; CC50 (HOP-92 [13]; read-out: LC50 (the source's name)): 62.2 µM; growth at 100 µM (HOP-92 [20]): -61%; growth at 0.1 µM (SF-295 [22]): 98%; growth at 0.1 µM (SK-MEL-2 [23]): 95%; growth at 10 µM (HOP-92 [24]): -8%; growth at 1 µM (SF-295 [25]): 101%; growth at 0.1 µM (SNB-75 [27]): 76%; LC50 (SF-295 [29]): 22.2 µM; TGI (SF-295 [29]): 6.15 µM; LC50 (concentration killing 50% of cells) (SNB-75 [30]): 27.7 µM; TGI (SNB-75 [30]): 7.57 µM; growth at 100 µM (LOX IMVI [31]): -78%; growth at 1 µM (SK-MEL-2 [34]): 107%
COc1cc(C(=O)/C=C/c2cc(-c3ccc4c(c3)OCO4)n[nH]2)cc(OC)c1OC |  | -27% | 83% | 90% | -14% |  | 93% |  | 85% |  |  | -89% |  |  | -100% | 97% | -82% | 96% | 26.1 µM | 5.65 µM | Activity (MCF7 [35]): Active; Activity (MCF7 [36]): Active; Activity call (increase in GSK-3beta Ser9 phosphorylation) (MCF7 [37]): Active; Activity (MCF7 [38]): Active; growth at 0.1 µM (SF-295 [22]): 95%; Activity (MCF7 [39]): Active; growth at 1 µM (SF-295 [25]): 85%; growth at 0.1 µM (SNB-75 [27]): 87%; Activity (MCF7 [40]): Active; Activity (MCF7 [41]): Active; GI50 (SF-295 [29]): 2.58 µM; LC50 (SF-295 [29]): 36.4 µM; TGI (SF-295 [29]): 10.1 µM; GI50 (SNB-75 [30]): 2.4 µM; LC50 (concentration killing 50% of cells) (SNB-75 [30]): 26.1 µM; TGI (SNB-75 [30]): 7.27 µM; Activity (MCF7 [42]): 26%; GI50 (CAKI-1 [33]): 1.99 µM
COc1ccc(C(=O)/C=C/c2cc(-c3cc(OC)c(OC)c(OC)c3)n[nH]2)cc1OC | 92% | -33% | 94% |  |  | -93% |  | 92% |  | -81% | 73% |  | 86% | -96% |  | 99% | -91% | 97% | 19.4 µM | 5.46 µM | Activity (MCF7 [35]): Active; Activity (MCF7 [36]): Active; Activity call (increase in GSK-3beta Ser9 phosphorylation) (MCF7 [37]): Active; Activity (MCF7 [38]): Active; growth at 0.1 µM (SK-MEL-2 [23]): 91%; Activity (MCF7 [39]): Active; Activity (MCF7 [40]): Active; Activity (MCF7 [41]): Active; growth at 100 µM (LOX IMVI [31]): -79%; Activity (MCF7 [42]): 42%; growth at 1 µM (SK-MEL-2 [34]): 98%
